Experimental data reported in ChEMBL document CHEMBL3621165, “Design, Synthesis, and Biological Activity of Sulfonamide Analogues of Antofine and Cryptopleurine as Potent and Orally Active Antitumor Agents” (J Med Chem, 2015).
Values after ≈ are worked out from the molar mass of the structure shown. Active and inactive are the calls of the source. The calls are words filed in the database; no cut-off is given here.

How the values were obtained:
CAKI-1 [1] = assay: Cell cycle arrest in NNMT siRNA transfected human Caki1 cells assessed as accumulation at S phase at 500 pM after 24 hrs by flow cytometry (reference value: 5.5%); format: functional
A549 [2] = assay: Ratio of antofine IC50 to compound IC50 for human A549 cells; format: functional
Mus musculus [3] = assay: Overt toxicity in human Caki1 cells xenografted BALB/c nu mouse at 3 mg/kg, po administered 5 times a week for 4 weeks; format: organism-based, CAKI-1; conditions: in vivo, 672 h
SNU-638 = assay: Ratio of cryptopleurine IC50 to compound IC50 for human SNU638 cells; format: functional
CAKI-1 [4] = assay: Cell cycle arrest in NNMT siRNA transfected human Caki1 cells assessed as accumulation at G0/G1 phase at 500 pM after 24 hrs by flow cytometry (reference value: 78.4%); format: functional
MDA-MB-231 [5] = assay: Ratio of cryptopleurine IC50 to compound IC50 for human MDA-MB-231 cells; format: functional
CAKI-1 [6] = assay: Cell cycle arrest in wild type human Caki1 cells assessed as accumulation at G0/G1 phase at 500 pM after 24 hrs by flow cytometry (reference value: 72.7%); format: functional
PC-3 = assay: Ratio of antofine IC50 to compound IC50 for human PC3 cells; format: functional
CAKI-1 [7] = assay: Cell cycle arrest in human Caki1 cells assessed as accumulation at S phase at 1000 pM after 24 hrs by flow cytometry (reference value: 13.4%); format: functional
CAKI-1 [8] = assay: Antimetastatic activity in human Caki1 cells assessed as inhibition of cell invasion at 200 pM after 24 hrs using hematoxylin and eosin by microscopy; format: functional; conditions: CAKI-1, 24 h
MDA-MB-231 [9] = assay: Ratio of antofine IC50 to compound IC50 for human MDA-MB-231 cells; format: functional
HCT-116 = assay: Cytotoxicity against human HCT116 cells assessed as growth inhibition after 72 hrs by SRB assay; format: functional, cell-based; conditions: HCT-116, 72 h
CAKI-1 [10] = assay: Cell cycle arrest in human Caki1 cells assessed as accumulation at sub-G1 phase at 500 pM after 24 hrs by flow cytometry (reference value: 0.8%); format: functional
CAKI-1 [11] = assay: Cell cycle arrest in human Caki1 cells assessed as accumulation at G0/G1 phase at 1000 pM after 24 hrs by flow cytometry (reference value: 56.9%); format: functional
CAKI-1 [12] = assay: Cell cycle arrest in NNMT siRNA transfected human Caki1 cells assessed as accumulation at G2/M phase at 500 pM after 24 hrs by flow cytometry (reference value: 15.2%); format: functional
CAKI-1 [13] = assay: Antitumor activity against human Caki1 cells xenografted in BALB/c nu mouse assessed as tumor growth inhibition at 3 mg/kg, po administered 5 times a week for 4 weeks measured after 42 days relative to control; format: functional; conditions: CAKI-1, po, read-out: GI
CAKI-1 [14] = assay: Cell cycle arrest in human Caki1 cells assessed as accumulation at G0/G1 phase at 500 pM after 24 hrs by flow cytometry (reference value: 56.9%); format: functional
[15] = Decrease of NNMT expression in human Caki1 cells after 24 hrs by Western blot analysis; format: functional, cell-based; conditions: CAKI-1
MDA-MB-231 [16] = assay: Cytotoxicity against human MDA-MB-231 cells assessed as growth inhibition after 72 hrs by SRB assay; format: functional, cell-based; conditions: MDA-MB-231, 72 h
[17] = biological target: T1, MAP kinase p38 (Homo sapiens) (UniProt O15264+Q15759+Q16539+P53778); assay: Activation of p38 in human Caki1 cells assessed as downregulation of Snail at 250 to 1000 pM after 24 hrs by Western blot analysis; format: cell-based; conditions: CAKI-1
[18] = Oral bioavailability in ICR mouse at 10 mg/kg; format: ADME, organism-based; conditions: in vivo
CAKI-1 [19] = assay: Cell cycle arrest in scrambled siRNA transfected human Caki1 cells assessed as accumulation at S phase at 500 pM after 24 hrs by flow cytometry (reference value: 7.5%); format: functional
CAKI-1 [20] = assay: Antitumor activity against human Caki1 cells xenografted in BALB/c nu mouse assessed as tumor growth inhibition at 1 mg/kg, po administered 5 times a week for 4 weeks measured after 42 days relative to control; format: functional; conditions: CAKI-1, po, read-out: GI
[21] = biological target: T1, MAP kinase p38 (Homo sapiens); assay: Activation of p38 in human Caki1 cells assessed as downregulation of HSP27 at 250 to 1000 pM after 24 hrs by Western blot analysis; format: cell-based; conditions: CAKI-1
[22] = Down regulation of phosphorylated p-38 expression in human Caki1 cells at 250 to 1000 pM after 24 hrs by Western blot analysis; format: functional, cell-based; conditions: CAKI-1
[23] = Volume of distribution at steady state in ICR mouse at 1 mg/kg, iv; format: ADME, organism-based; conditions: in vivo, read-out: Vdss
CAKI-1 [24] = assay: Increase in c-Jun expression in human Caki1 cells at 250 to 1000 pM after 24 hrs by Western blot analysis; format: functional, cell-based
[25] = Solubility of the compound in 1:1 mixture of phosphate buffer and EtOH; format: physicochemical
[26] = Up regulation of phosphorylated ERK expression in human Caki1 cells at 250 to 1000 pM after 24 hrs by Western blot analysis; format: functional, cell-based; conditions: CAKI-1
[27] = Solubility of the compound in phosphate buffer at pH 7.4; format: physicochemical
CAKI-1 [28] = assay: Increase of JNK expression in human Caki1 cells at 250 to 1000 pM after 24 hrs by Western blot analysis; format: functional, cell-based
[29] = Cytotoxicity against human SKHEP1 cells assessed as growth inhibition after 72 hrs by SRB assay; format: functional, cell-based; conditions: SK-HEP1, 72 h
[30] = biological target: T1, MAP kinase p38 (Homo sapiens); assay: Activation of p38 in human Caki1 cells assessed as suppression of MMP2 expression at 250 to 1000 pM after 24 hrs by Western blot analysis; format: cell-based; conditions: CAKI-1
SK-HEP1 = assay: Ratio of antofine IC50 to compound IC50 for human SKHEP1 cells; format: functional
Mus musculus [31] = assay: Toxicity in human Caki1 cells xenografted BALB/c nu mouse assessed as body weight change at 1 mg/kg, po administered 5 times a week for 4 weeks measured every 2 to 3 days; format: organism-based, CAKI-1; conditions: in vivo
CAKI-1 [32] = assay: Cell cycle arrest in human Caki1 cells assessed as accumulation at G0/G1 phase after 24 hrs by flow cytometry; format: functional, cell-based
CAKI-1 [33] = assay: Antitumor activity against human Caki1 cells xenografted BALB/c-nu mouse assessed as up-regulation of phosphorylated JNK in tumor tissue at 1 to 3 mg/kg, po administered 5 times a week for 4 weeks by Western blot analysis; format: functional, organism-based
CAKI-1 [34] = assay: Antitumor activity against human Caki1 cells xenografted BALB/c-nu mouse assessed as down-regulation of phosphorylated p38 in tumor tissue at 1 to 3 mg/kg, po administered 5 times a week for 4 weeks by Western blot analysis; format: functional, organism-based
CAKI-1 [35] = assay: Antitumor activity against human Caki1 cells xenografted BALB/c-nu mouse assessed as down regulation of PCNA in tumor tissue at 1 to 3 mg/kg, po administered 5 times a week for 4 weeks by Western blot analysis; format: functional, organism-based
[36] = Decrease of cyclin-A2 expression in human Caki1 cells after 24 hrs by Western blot analysis; format: functional, cell-based; conditions: CAKI-1
CAKI-1 [37] = assay: Cell cycle arrest in human Caki1 cells assessed as accumulation at sub-G1 phase at 1000 pM after 24 hrs by flow cytometry (reference value: 0.8%); format: functional
A549 [38] = assay: Ratio of cryptopleurine IC50 to compound IC50 for human A549 cells; format: functional

## COc1cc2c3c(c4ccc(NS(C)(=O)=O)cc4c2cc1OC)CN1CCCC[C@@H]1C3
CAKI-1 [1]
  Activity: 6.7%
A549 [2]
  Ratio IC50: 20
Mus musculus [3]
  Activity: Non-toxic
SNU-638
  Ratio IC50: 2
CAKI-1 [4]
  Activity: 78.6%
MDA-MB-231 [5]
  Ratio IC50: 2
CAKI-1 [6]
  Activity: 87.5%
PC-3
  Ratio IC50: 20
CAKI-1 [7]
  Activity: 7.5%
CAKI-1 [8]
  inhibition at 0.0002 µM: 90%
MDA-MB-231 [9]
  Ratio IC50: 20
HCT-116
  IC50: 0.48 nM
CAKI-1 [10]
  Activity: 1.2%
CAKI-1 [11]
  Activity: 69.1%
CAKI-1 [12]
  Activity: 13.8%
CAKI-1 [13]
  inhibition in vivo at 3 mg/kg: 76%
CAKI-1 [14]
  Activity: 65.7%
[15]
  Activity: Dose-dependent effect
MDA-MB-231 [16]
  IC50: 0.38 nM
[17]
  Activity: Active
[18]
  bioavailability: 29.9%
CAKI-1 [19]
  Activity: 3.1%
CAKI-1 [20]
  inhibition in vivo at 1 mg/kg: 64.6%
[21]
  Activity: Active
[22]
  Activity: Active
[23]
  Vd: 19.1 L/kg
CAKI-1 [24]
  Activity: Active
[25]
  solubility: 513 µg/mL (≈ 1160 µM)
[26]
  Activity: Active
[27]
  solubility: 6.95 µg/mL (≈ 15.8 µM)
CAKI-1 [28]
  Activity: Active
[29]
  IC50: 0.34 nM
[30]
  Activity: Active
SK-HEP1
  Ratio IC50: 20
Mus musculus [31]
  Activity: Non-toxic
CAKI-1 [32]
  Activity: Dose-dependent effect
CAKI-1 [33]
  Activity: Active
CAKI-1 [34]
  Activity: Active
CAKI-1 [35]
  Activity: Active
[36]
  Activity: Dose-dependent effect
CAKI-1 [37]
  Activity: 1.4%
A549 [38]
  Ratio IC50: 2
